Results published in the Kinase Knowledgebase extract (Sharma et al. 2016).

What was measured:
[1] = molecular target: EGFR (human) (UniProt P00533); conditions: mda-mb-361
[2] = molecular target: EGFR (human) (UniProt P00533); conditions: mda-mb-231
[3] = molecular target: EGFR (human) (UniProt P00533); conditions: mda-mb-231; remark: listed apart in the source
[4] = molecular target: EGFR (human) (UniProt P00533); conditions: mda-mb-231; remark: listed apart in the source

Chain of EGFR (human) (P00533 whole entry, looked up): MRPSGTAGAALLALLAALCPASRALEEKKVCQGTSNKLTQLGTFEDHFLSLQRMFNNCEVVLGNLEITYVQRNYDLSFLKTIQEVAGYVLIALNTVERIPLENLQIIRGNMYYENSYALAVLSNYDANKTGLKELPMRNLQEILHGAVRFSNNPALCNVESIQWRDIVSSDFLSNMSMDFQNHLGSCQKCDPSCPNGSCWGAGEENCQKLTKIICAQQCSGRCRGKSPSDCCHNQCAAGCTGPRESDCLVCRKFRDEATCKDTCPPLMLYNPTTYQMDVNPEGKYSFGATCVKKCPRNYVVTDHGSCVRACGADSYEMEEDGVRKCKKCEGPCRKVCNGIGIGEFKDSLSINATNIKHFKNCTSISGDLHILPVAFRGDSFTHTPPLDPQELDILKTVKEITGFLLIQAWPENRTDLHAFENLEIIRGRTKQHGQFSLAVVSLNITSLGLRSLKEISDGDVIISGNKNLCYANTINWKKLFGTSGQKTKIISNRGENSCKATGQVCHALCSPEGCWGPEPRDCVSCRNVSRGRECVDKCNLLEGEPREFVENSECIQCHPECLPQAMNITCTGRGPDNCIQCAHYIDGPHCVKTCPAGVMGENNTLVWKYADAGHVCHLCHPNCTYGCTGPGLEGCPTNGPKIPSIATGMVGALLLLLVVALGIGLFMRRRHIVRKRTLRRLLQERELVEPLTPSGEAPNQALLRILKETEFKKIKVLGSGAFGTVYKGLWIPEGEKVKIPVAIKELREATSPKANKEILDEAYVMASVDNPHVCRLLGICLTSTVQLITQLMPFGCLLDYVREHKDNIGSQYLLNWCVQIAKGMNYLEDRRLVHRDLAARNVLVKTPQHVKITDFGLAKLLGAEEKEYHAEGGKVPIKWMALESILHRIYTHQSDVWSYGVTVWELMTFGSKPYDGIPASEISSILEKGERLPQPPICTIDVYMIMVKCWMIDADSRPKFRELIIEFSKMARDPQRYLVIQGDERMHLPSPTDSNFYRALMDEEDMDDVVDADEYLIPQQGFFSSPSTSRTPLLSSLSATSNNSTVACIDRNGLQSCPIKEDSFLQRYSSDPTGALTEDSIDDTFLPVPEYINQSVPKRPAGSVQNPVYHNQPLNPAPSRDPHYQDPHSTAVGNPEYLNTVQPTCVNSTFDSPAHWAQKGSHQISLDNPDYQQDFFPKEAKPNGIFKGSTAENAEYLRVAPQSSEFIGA

| SMILES | IC50 [1] | IC50 [2] | IC50 [3] | IC50 [4] |
| --- | --- | --- | --- | --- |
| C/C(O)=C(\C#N)C(=O)Nc1ccc(F)cc1 | > 300 µM | > 100 µM | > 300 µM | – |
| C/C(O)=C(\C#N)C(=O)Nc1ccccc1 | > 300 µM | > 100 µM | > 300 µM | – |
| C/C(O)=C(\C#N)C(=O)Nc1cccc(C(F)(F)F)c1 | > 300 µM | > 100 µM | > 300 µM | – |
| C/C(O)=C(\C#N)C(=O)Nc1ccccc1C(F)(F)F | > 300 µM | > 100 µM | > 300 µM | – |
| C/C(O)=C(\C#N)C(=O)Nc1ccccc1Br | > 300 µM | > 100 µM | > 300 µM | – |
| C/C(O)=C(\C#N)C(=O)Nc1ccc(Br)cc1 | > 300 µM | > 100 µM | > 300 µM | – |
| C/C(O)=C(\C#N)C(=O)Nc1ccc(OC(F)(F)F)cc1 | 26.3 µM | – | 53.4 µM | 28.4 µM |
| C/C(O)=C(\C#N)C(=O)Nc1cc(Br)ccc1Br | > 300 µM | > 100 µM | > 300 µM | – |
| C/C(O)=C(\C#N)C(=O)Nc1ccccc1Cl | > 300 µM | > 100 µM | > 300 µM | – |
| C/C(O)=C(\C#N)C(=O)Nc1cccc(Br)c1 | > 300 µM | > 100 µM | > 300 µM | – |
| C/C(O)=C(\C#N)C(=O)Nc1cccc(Cl)c1 | > 300 µM | > 100 µM | > 300 µM | – |
| C/C(O)=C(\C#N)C(=O)Nc1ccc(Cl)cc1 | > 300 µM | > 100 µM | > 300 µM | – |
| C/C(O)=C(\C#N)C(=O)Nc1ccc(C(F)(F)F)cc1 | 190 µM | 5.4 µM | 199 µM | 97 µM |
| C/C(O)=C(\C#N)C(=O)Nc1cccc(F)c1 | > 300 µM | > 100 µM | > 300 µM | – |
| C/C(O)=C(\C#N)C(=O)Nc1ccccc1F | > 300 µM | 74.5 µM | > 300 µM | – |
